Patent US20240408093A1, “HETEROBIFUNCTIONAL COMPOUNDS AND THEIR USE IN TREATING DISEASE” (HALDA THERAPEUTICS OPCO, INC., priority 2022, published 2024)
Read-outs that look alike come from different tables or passages of the source.

Experiments:
[1] = test system: HEK293 cells (ATCC CRL-1573); assay: Cellular growth inhibition assay, HEK293 cells (Example 16); assay type: cell-based; conditions: Homo sapiens, 72 hours, CellTiter-Glo 2.0
Protocol: (§1) Exemplary compounds were tested for ability to inhibit the proliferation of HEK293 cells (ATCC CRL-1573) and HeLa cells (ATCC CCL-2).
(§2) HEK293 and HeLa cells were cultured in DMEM (Gibco 11995), supplemented with 10% Heat-inactivated FBS (Gibco A38400-01) and 1% Penicillin/Streptomycin (Gibco 15140-122) at 37° C. with 5% CO2 in a humidified tissue culture incubator. Cells were seeded at 500 cells/well in 384-well, Poly-D-lysine-treated blackplates (Perkin Elmer 6007710) in 25 μL media lacking selection for 18-24 hours. Plates were spun at 300 g for 30 seconds and stored in the incubator overnight. After 24 hours, a 25 μL aliquot of compound-containing medium was added in each well, at a final top concentration of 10 μM test compound, with 3-fold dilutions, using DMSO alone as a negative control. Plates were then spun at 300×g for 3 minutes again and cultured at 37° C. with 5% CO2. After 72 hours, cell viability was quantified with CellTiter-Glo 2.0 (Promega). After equilibrating cell plates at room temperature for 30 minutes, 25 μL CellTiter-Glo 2.0 reagent was dispensed into each well. Plates were mixed on a shaker for 2 minutes at 500 rpm, followed by a 10-minute incubation at room temperature. Luminescence readings were measured with an EnVision Plate Reader (Perkin Elmer). Data was normalized to DMSO treated cell wells. A four-parameter non-linear regression curve fit was applied to dose-response data in Prism to determine the half maximal growth inhibitory concentration (GI50) of each compound.

HeLa cells (ATCC CCL-2) = assay: Cellular growth inhibition assay, HeLa cells (Example 16); assay type: cell-based; conditions: Homo sapiens, 72 hours, CellTiter-Glo 2.0
Protocol: as §1, §2

[2] = molecular target: T1, EGFR WT (amino acids 669-1011) (Homo sapiens, UniProt P00533); assay: KdELECT binding assay, EGFR WT
T1 construct: purchased Eurofins Discovery (KdELECT); host or cells: bacteria (E. coli BL21-derived, T7 phage)
Protocol: (§3) Exemplary compounds were tested for ability to bind to EGFR WT (amino acids 669-1011, Accession Number NP_005219.2) or EGFR T790M, L858R (amino acids 669-1011 Accession Number NP_005219.2) expressed from bacteria or mammalian cells, respectively. Compounds were tested using the KdELECT assay at Eurofins Discovery.
(§4) Kinase-tagged T7 phage strains were prepared in an E. coli host derived from the BL21 strain. E. coli were grown to log-phase and infected with T7 phage and incubated with shaking at 32° C. until lysis. The lysates were centrifuged and filtered to remove cell debris. The remaining kinases were produced in HEK-293 cells and subsequently tagged with DNA for qPCR detection. Streptavidin-coated magnetic beads were treated with biotinylated small molecule ligands for 30 minutes at room temperature to generate affinity resins for kinase assays. The liganded beads were blocked with excess biotin and washed with blocking buffer (SeaBlock (Pierce), 1% BSA, 0.05% Tween 20, 1 mM DTT) to remove unbound ligand and to reduce non-specific binding. Binding reactions were assembled by combining kinases, liganded affinity beads, and test compounds in 1x binding buffer (20% SeaBlock, 0.17× PBS, 0.05% Tween 20, 6 mM DTT). Test compounds were prepared as 111× stocks in 100% DMSO. Kd values were determined using an 11-point 3-fold compound dilution series with three DMSO control points. All compounds for Kd measurements are distributed by acoustic transfer (non-contact dispensing) in 100% DMSO. The compounds were then diluted directly into the assays such that the final concentration of DMSO was 0.9%. All reactions performed in polypropylene 384-well plate. Each was a final volume of 0.02 mL. The assay plates were incubated at room temperature with shaking for 1 hour and the affinity beads were washed with wash buffer (1× PBS, 0.05% Tween 20). The beads were then re-suspended in elution buffer (1× PBS, 0.05% Tween 20, 0.5 μM nonbiotinylated affinity ligand) and incubated at room temperature with shaking for 30 minutes. The kinase concentration in the eluates was measured by qPCR.

[3] = molecular target: T2, EGFR T790M, L858R (amino acids 669-1011) (Homo sapiens, UniProt P00533, L858R/T790M); assay: KdELECT binding assay, EGFR T790M, L858R
T2 construct: purchased Eurofins Discovery (KdELECT); host or cells: mammalian cells (HEK-293)
Protocol: as §3, §4

GSPT1 = molecular target: T3, GSPT1 (Homo sapiens, UniProt P15170+Q96SW2); assay: GSPT1 HiBiT degradation assay; assay type: cell-based; conditions: HEK293 LgBiT GSPT1 HiBiT cells, 6 hours
T3 construct: host or cells: HEK293 LgBiT / GSPT1 HiBiT CRISPR knock-in
Text: Promega developed a HEK293 cell line that constitutively expresses LgBiT protein and GSPT1_HiBiT fusion protein. When both proteins are present, the HiBiT portion of the fusion protein combines with LgBiT protein to form a functional luciferase enzyme. Endurazine, a cell permeable small molecule, is converted by cellular esterases into furimazine, which the luciferase enzyme uses as a substrate to generate luminescence. When GSPT1 is degraded, the HiBit is also degraded. This prevents formation of fully functional luciferase, leading to a loss in luminescence. GSPT1 degradation therefore correlates with a decrease in luminescence and can be measured continuously over time. The concentration of compound at which 50% GSPT1 degradation occurs (DC50) may be calculated using this system.
HEK293 LgBiTGSPT1 HiBiT CRISPR Knock-in cells were cultured in DMEM Media supplemented with 10% Heat-inactivated FBS, 1% Penicillin/Streptomycin, 200 μg/mL hygromycin and stored in a humidified incubator set at 37° C. and 5% CO2. 18-24 hours prior to compound treatment, cells were seeded at 1000 cells/well in a 384-well tissue culture-treated white plates in 25 μL media lacking selection for 18-24 hours. The plates were spun at 300 g for 30 seconds and stored in the incubator overnight. After 24 hours, compounds are titrated in DMSO and added to media supplemented with endurazine substrate. A 25 μL aliquot of 2× compound/endurazine in media is then added to the 384-well microplate with seeded cells. (Endurazine is used at a final concentration of 0.5×). The plate was spun at 300 g for 30 seconds and stored in the incubator. After 6 hours, the plate was read on a Perkin Elmer MultiMode Plate Reader Envision 2105 to measure luminescence signal. Data were plotted in Prism (Graphpad) and the concentration of compound at which 50% GSPT1 degradation occurs (DC50) was calculated.

[4] = molecular target: T4, EGFR T790M/L858R kinase domain (Homo sapiens, UniProt P00533, L858R/T790M); assay: EGFR cellular target engagement assay (HEK293 cells stable for EGFR T790M, L858R); assay type: cell-based; conditions: 6 hours, read-out: TE50 (the source's name)
T4 construct: EGFR (amino acids 696-1022, T790M, L858R); expressed in transfected cells; host or cells: HEK293, lentiviral transduction, puromycin selection
Protocol: HEK293 cells were cultured in DMEM (Gibco 11995), supplemented with 10% Heat-inactivated FBS (Gibco A38400-01) and 1% Penicillin/Streptomycin (Gibco 15140-122) at 37° C. with 5% CO2 in a humidified tissue culture incubator. Cells were made stable for EGFR (amino acids 696-1022, T790M, L858R) by lentiviral transduction, followed by selection with 1 μg/ml Puromycin Dihydrochloride (Thermo A1113803). Cells were seeded at 30,000 cells/ml in 0.1 ml of complete media in Poly-D-lysine-treated 96-well plates and incubated overnight. Cells were treated with increasing concentrations of compound and let incubate at 37C and 5% CO2 for 6 hours, after which media was aspirated, washed with 1×PBS and cells were lysed in RIPA Lysis and Extraction Buffer (Thermo 89901) supplemented with 5 mM MgCl2, Protease and Phosphatase inhibitor cocktail (Thermo 1861281), and Universal Nuclease (Thermo 88700). Plates with RIPA were shaken at 4° C. at 600 rpm for 15 min. After shaking samples, they were collected and spun down at 21,000 g for 15 min at 4° C. Following centrifugation, […] of lysate was added to Laemmli Sample Buffer (Bio-Rad 1610747) plus 10% beta-mercaptoethanol, boiled for 15 minutes at 65° C. and loaded onto 4-20% Mini-PROTEAN TGX™ Precast Protein Gels (Bio-Rad). Protein was transferred to a nitrocellulose membrane (Thermo LC2000) using the iBlot 2 Dry Blotting System (Thermo). After transfer, membranes were washed in 1× TBST (Bioland Scientific LLC TBST0103) 3× for 5 min. Following the wash, blocking buffer (Rockland MB-070) was added for 1 hour at room temperature. Primary antibodies against EGFR (Cell Signaling Technology 3197) and actin (Cell Signaling Technology 3700S) were added overnight at 4° C. Membranes were then washed again 3× for 5 min in 1× TBST. Secondary antibodies (LI-COR 926-68072 and 926-68073) were added and shaken for 1 hr at room temperature. Membranes were then washed 3× for 5 min in 1×TBST and developed. Membranes were placed on an Odyssey imager (LI-COR).

CCNK = assay: Payload release assay (DC50 readout), CCNK degradation in the presence of recombinant target protein; assay type: cell-based; conditions: II-series and V-4 (CCNK readout inferred)
Protocol: Exemplary compounds were tested for ability to cause degradation of CCNK or GSPT1 in the presence of recombinant target protein.
HEK293 LgBiT/GSPT1 HiBiT CRISPR Knock-in cells (Promega) were cultured in DMEM (Gibco 11995), supplemented with 10% Heat-inactivated FBS (Gibco A38400-01) and 1% Penicillin/Streptomycin (Gibco 15140-122) and 200 Vg/ml Hygromycin B (Gibco 10-687-010) at 37° C. with 5% CO2 in a humidified tissue culture incubator. HEK293 LgBiT/CCNK HiBiT cells (in-house, described above) were cultured in DMEM (Gibco 11995), supplemented with 10% Heat-inactivated FBS (Gibco A38400-01) and 1% Penicillin/Streptomycin (Gibco 15140-122) 200 Vg/ml Hygromycin B (Gibco 10-687-010), and 1 Vg/ml Puromycin Dihydrochloride (Thermo A1113803) at 37° C. with 5% CO2 in a humidified tissue culture incubator. Cells were seeded (1000 cells/well for HEK293 LgBiT/GSPT1 HiBiT cells or 3000 cells/well for HEK293 LgBiT/CCNK HiBiT cells) 384-well, tissue culture-treated white plates (Perkin Elmer 6007680) in 10 μL media lacking selection for 18-24 hours. Plates were spun at 300 g for 30 seconds and stored in the incubator overnight. After 24 hours, a 5 μL aliquot of recombinant target protein (final concentration of either 5 μM KRAS amino acids 1-169, C51S, C80L, C118S, G12C or 3 μM EGFR amino acids 696-1022 or 3 μM EGFR amino acids 696-1022, T790M, L858R) was added to wells, followed immediately by a 5 μL aliquot of 4× compound-containing medium supplemented with Endurazine Substrate (Promega N2570) was added in each well, at a final top concentration of 10 μM test compound and 0.5× Endurazine, with 4-fold dilutions, using DMSO alone as a negative control. Plates were then spun at 300×g for 3 minutes again and cultured at 37° C. with 5% CO2. After 6 hours the plate was read on Envision MultiMode Plate Reader 2105 (Perkin Elmer) to measure luminescence signal. Data was normalized to DMSO treated cell wells. A four-parameter non-linear regression curve fit was applied to dose-response data in Prism to determine the half maximal growth inhibitory concentration (GI50) of each compound.

T1 sequence (P00533 669-1011): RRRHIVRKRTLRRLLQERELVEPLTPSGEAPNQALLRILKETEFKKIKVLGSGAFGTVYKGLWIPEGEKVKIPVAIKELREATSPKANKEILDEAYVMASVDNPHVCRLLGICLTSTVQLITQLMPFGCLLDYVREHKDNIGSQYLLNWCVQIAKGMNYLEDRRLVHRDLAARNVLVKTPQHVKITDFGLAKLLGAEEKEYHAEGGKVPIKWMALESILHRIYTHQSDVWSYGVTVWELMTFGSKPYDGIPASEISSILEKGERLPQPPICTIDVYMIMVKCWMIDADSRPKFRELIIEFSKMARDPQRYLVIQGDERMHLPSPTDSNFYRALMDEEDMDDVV
T2 sequence (P00533 669-1011 T790M/L858R): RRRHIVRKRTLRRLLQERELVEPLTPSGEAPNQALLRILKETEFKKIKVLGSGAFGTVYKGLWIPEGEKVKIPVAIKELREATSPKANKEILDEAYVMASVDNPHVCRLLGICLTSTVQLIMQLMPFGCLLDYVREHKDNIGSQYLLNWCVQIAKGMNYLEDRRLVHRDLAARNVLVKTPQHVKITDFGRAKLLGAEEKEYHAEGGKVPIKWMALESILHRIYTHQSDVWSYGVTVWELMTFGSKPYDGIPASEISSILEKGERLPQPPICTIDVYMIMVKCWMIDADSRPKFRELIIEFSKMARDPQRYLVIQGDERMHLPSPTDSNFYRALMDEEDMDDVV
T3 sequence (P15170 whole entry): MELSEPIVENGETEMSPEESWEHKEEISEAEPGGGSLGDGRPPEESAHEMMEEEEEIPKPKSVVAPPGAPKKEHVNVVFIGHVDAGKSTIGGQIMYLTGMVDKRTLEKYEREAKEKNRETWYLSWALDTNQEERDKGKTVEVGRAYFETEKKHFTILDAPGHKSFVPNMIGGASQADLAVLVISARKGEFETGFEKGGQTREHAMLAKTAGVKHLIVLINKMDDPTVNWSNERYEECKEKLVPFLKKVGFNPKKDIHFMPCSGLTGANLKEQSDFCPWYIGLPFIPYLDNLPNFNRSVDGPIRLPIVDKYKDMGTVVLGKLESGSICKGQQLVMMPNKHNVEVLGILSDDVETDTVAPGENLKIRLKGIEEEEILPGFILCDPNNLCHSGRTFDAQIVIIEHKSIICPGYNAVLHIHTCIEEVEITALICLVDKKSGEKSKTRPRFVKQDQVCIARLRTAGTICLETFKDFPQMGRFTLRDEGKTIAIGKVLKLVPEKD
T3 sequence (Q96SW2 whole entry): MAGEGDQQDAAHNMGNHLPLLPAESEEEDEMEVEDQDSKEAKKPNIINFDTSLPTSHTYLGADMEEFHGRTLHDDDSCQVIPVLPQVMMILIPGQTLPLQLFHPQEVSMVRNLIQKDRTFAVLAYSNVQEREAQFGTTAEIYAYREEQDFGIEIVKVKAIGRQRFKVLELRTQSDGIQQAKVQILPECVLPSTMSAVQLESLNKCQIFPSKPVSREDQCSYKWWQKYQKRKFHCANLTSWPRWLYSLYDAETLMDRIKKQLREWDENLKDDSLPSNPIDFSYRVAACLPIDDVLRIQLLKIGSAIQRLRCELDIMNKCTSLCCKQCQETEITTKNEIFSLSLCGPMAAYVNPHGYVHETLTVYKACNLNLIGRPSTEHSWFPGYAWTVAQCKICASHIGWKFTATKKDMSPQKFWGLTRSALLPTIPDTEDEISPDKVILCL
T3 sequence (Q16531 whole entry partner): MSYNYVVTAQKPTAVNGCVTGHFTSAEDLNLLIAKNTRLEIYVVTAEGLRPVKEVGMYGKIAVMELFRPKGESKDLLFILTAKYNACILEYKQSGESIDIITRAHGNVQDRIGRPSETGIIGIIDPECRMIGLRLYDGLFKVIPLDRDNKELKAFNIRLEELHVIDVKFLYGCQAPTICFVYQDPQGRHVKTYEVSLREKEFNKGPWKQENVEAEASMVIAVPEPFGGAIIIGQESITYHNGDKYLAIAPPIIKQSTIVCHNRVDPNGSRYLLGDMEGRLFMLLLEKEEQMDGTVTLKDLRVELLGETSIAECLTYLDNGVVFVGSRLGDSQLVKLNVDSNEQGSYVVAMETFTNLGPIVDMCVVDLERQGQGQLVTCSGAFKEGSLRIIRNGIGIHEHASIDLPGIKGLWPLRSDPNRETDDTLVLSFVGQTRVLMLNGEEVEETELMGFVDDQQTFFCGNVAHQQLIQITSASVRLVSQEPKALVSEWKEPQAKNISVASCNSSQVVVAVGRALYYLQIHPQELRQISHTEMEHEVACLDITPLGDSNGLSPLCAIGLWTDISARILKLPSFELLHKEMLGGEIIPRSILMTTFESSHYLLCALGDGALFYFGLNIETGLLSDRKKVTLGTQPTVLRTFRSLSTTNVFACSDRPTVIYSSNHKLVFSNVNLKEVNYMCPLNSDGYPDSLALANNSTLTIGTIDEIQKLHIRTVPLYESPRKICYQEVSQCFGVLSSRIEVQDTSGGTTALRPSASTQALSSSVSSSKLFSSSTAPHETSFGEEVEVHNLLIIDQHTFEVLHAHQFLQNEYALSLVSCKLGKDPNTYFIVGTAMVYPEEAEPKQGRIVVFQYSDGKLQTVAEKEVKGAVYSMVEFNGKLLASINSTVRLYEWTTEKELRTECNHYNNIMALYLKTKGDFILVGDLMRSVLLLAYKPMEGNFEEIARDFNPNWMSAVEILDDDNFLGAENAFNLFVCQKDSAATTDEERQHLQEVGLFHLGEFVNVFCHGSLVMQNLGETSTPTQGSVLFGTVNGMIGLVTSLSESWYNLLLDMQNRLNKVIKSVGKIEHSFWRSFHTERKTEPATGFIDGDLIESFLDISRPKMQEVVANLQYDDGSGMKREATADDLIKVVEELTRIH
T4 sequence (P00533 696-1022 T790M/L858R): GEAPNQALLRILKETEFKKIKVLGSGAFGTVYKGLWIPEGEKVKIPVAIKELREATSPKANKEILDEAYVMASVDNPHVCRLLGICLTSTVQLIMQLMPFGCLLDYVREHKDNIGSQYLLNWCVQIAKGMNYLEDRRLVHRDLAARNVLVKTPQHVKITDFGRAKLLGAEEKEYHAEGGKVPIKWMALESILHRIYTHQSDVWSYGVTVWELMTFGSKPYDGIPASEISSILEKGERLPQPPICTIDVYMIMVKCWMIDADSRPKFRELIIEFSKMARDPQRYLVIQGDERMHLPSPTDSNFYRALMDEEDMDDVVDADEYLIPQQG

Row | SMILES | GI50 [1] [µM] | GI50 (HeLa cells (ATCC CCL-2)) [µM] | Kd [2] [µM] | Kd [3] [µM] | DC50 (GSPT1) [µM] | EC50 [4] [µM] | DC50 (CCNK; 0 μM recombinant EGFR T790M L858R, read-out: DC50 at 0 μM EGFR T790M L858R) [µM] | DC50 (CCNK; 0 μM recombinant EGFR WT, read-out: DC50 at 0 μM EGFR WT) [µM]
1 | C=C(CN(C(=O)NCc1ccc2c(c1)CN(C1CCC(=O)NC1=O)C2=O)c1ccc(C)c(Cl)c1)C(=O)N[C@@H]1CN(c2nc(Nc3cn(C)nc3OC)c3ncn(C)c3n2)C[C@H]1F (stereo partly drawn) [Compound I-41] | 1.5 to 10 | > 10 | > 2.5 | > 2.5 | > 2.5 | > 10 |  | 
2 | C=C(Cn1c(CNc2nc(N3CCN(C)CC3)nc3c(Br)cnn23)nc2c(F)c(F)ccc21)C(=O)N[C@@H]1CN(c2nc(Nc3cn(C)nc3OC)c3ncn(C)c3n2)C[C@H]1F [II-182] | 1.5 to 10 | 1.5 to 10 | > 2.5 | > 2.5 |  |  | 5 to 10 | 5 to 10
